Experimental data as given in patent US20260015322A1, “DELIVERY OF THERAPEUTIC ALKALOID COMPOUNDS” (priority 2022, published 2026).

Tests used:
[1] = Hydrolysis Assay - Condition 1 (SGF); type: physicochemical; details: Condition 1: SGF with pepsin pH 1.5, 37° C., 0.5 mM
Procedure: 50 uL of compound (10 mM) in DMSO was diluted into 950 uL of Simulated Gastric Fluid (SGF) with pepsin (pH 1.5) to a final concentration of 0.5 mM. The hydrolysis kinetics were conducted at 37° C. and measured by LCMS at a certain time interval.
(§1) The corresponding LCMS chromatogram were recorded and the conversions were calculated by integration of each peak.
(§2) • 1) LCMS spectra were obtained using Agilent 1200G1956A or SHIMADZU LCMS-2020. • Standard LCMS conditions were as follows (running time 1.55 minutes): • Acidic condition: Mobile Phase A: 0.0375% TFA in water (v/v). Mobile Phase B: 0.01875% TFA in acetonitrile (v/v); Column: Kinetex EVO C18 30*2.1 mm, 5 μm. • Basic condition: Mobile Phase A: 0.025% NH3·H2O in water (v/v). Mobile Phase B: Acetonitrile; Column: Kinetex EVO C18 2.1×30 mm, 5 μm. • 2) Conversion (%)=peak area 1/(peak area 1+peak area 2)*100%, peak area 1 is the integration of hydrolyzed product, peak area 2 is the integration of starting material.

[2] = Hydrolysis Assay - Condition 2 (DI Water); type: physicochemical; details: 25° C., 0.5 mM
Procedure: 50 uL of compound (10 mM) in DMSO was diluted into 950 uL of DI water to a final concentration of 0.5 mM. The hydrolysis kinetics were conducted at 25° C. and measured by LCMS at a certain time interval.
as §1, §2

[3] = Plasma Stability Assay (Example A2), mouse plasma; type: in vitro ADME; details: Mouse Plasma, 37° C., prodrug remaining
Procedure: (§3) Each test was carried out in duplicate for each time point; 0 min, 15 min, 30 min, 60 min, 120, 240 min. […]

[4] = Plasma Stability Assay (Example A2), human plasma; type: in vitro ADME; details: 37° C., prodrug remaining
Procedure: as §3

[5] = Plasma Stability Assay (Example A3), rat plasma; type: in vitro ADME; details: 10 μM, 37° C., prodrug remaining
Description: (§4) The data is represented in the table below.

[6] = Plasma Stability Assay (Example A3), human plasma; type: in vitro ADME; details: 10 μM, 37° C., prodrug remaining
Description: as §4

Structure (SMILES)	Conversion (%) ([1]; 1 min)	Conversion (%) ([1]; 5 min)	Conversion (%) ([1]; 30 min)	Conversion (%) ([1]; 1 h)	Conversion (%) ([1]; 4 h)	Conversion (%) ([1]; 24 h)	Conversion (%) ([2]; 1 min)	Conversion (%) ([2]; 5 min)	Conversion (%) ([2]; 30 min)	Conversion (%) ([2]; 1 h)	Conversion (%) ([2]; 4 h)	Conversion (%) ([2]; 24 h)	Prodrug (%) ([3]; 0 min)	Prodrug (%) ([3]; 15 min)	Prodrug (%) ([3]; 30 min)	Prodrug (%) ([3]; 60 min)	Prodrug (%) ([3]; 120 min)	Prodrug (%) ([3]; 240 min)	Prodrug (%) ([4]; 0 min)	Prodrug (%) ([4]; 15 min)	other results
COc1ccc([C@@]23CCC(OP(=O)(Oc4ccccc4)Oc4ccccc4)=C[C@@H]2N(C)CC3)cc1OC [Compound 320, [(3aS,7aS)-3a-(3,4-dimethoxyphenyl)-1-methyl-3,4,5,7a-tetrahydro-2H-indol-6-yl]diphenyl phosphate]	0	0	0	0	0	0	0	0	0	0	0	0	100	58.5	46.5	30.7	19.4	11.7	100	95.7	Prodrug (%) ([4]; 30 min): 98.5%; Prodrug (%) ([4]; 60 min): 95.7%; Prodrug (%) ([4]; 120 min): 98.2%; Prodrug (%) ([4]; 240 min): 95.3%
COc1ccc([C@@]23CCC(OC(=O)N(C)C)=C[C@@H]2N(C)CC3)cc1OC [Compound 324, [(3aS,7aS)-3a-(3,4-dimethoxyphenyl)-1-methyl-3,4,5,7a-tetrahydro-2H-indol-6-yl] N,N-dimethylcarbamate]	0	0	0	0	0	0	0	0	0	0	0	0	100.0	97.4	94.4	94.9	92.6	88.9	100.0	98.2	Prodrug (%) ([4]; 30 min): 98.7%; Prodrug (%) ([4]; 60 min): >99%; Prodrug (%) ([4]; 120 min): >99%; Prodrug (%) ([4]; 240 min): 96.5%
COc1ccc([C@@]23CCC(OP(=O)(O)OCOC(=O)OC(C)C)=C[C@@H]2N(C)CC3)cc1OC [Compound 410, [[(3aS,7aS)-3a-(3,4-dimethoxyphenyl)-1-methyl-3,4,5,7a-tetrahydro-2H-indol-6-yl]oxy-hydroxy-phosphoryl]oxymethyl isopropyl carbonate]	–	–	–	–	–	–	–	–	–	–	–	–	–	–	–	–	–	–	–	–	Prodrug (%) ([5]; 0 min): 100.0%; Prodrug (%) ([5]; 10 min): 63.0%; Prodrug (%) ([5]; 30 min): 25.4%; Prodrug (%) ([5]; 60 min): 7.1%; Prodrug (%) ([5]; 120 min): 0.52%; Prodrug (%) ([5]; 240 min): 0.01%; Prodrug (%) ([6]; 0 min): 100.0%; Prodrug (%) ([6]; 10 min): 96.3%; Prodrug (%) ([6]; 30 min): 98.8%; Prodrug (%) ([6]; 60 min): 92.7%; Prodrug (%) ([6]; 120 min): 88.2%; Prodrug (%) ([6]; 240 min): 75.5%
CCN(C)C(=O)OC1=C[C@@H]2N(C)CC[C@]2(c2ccc(OC)c(OC)c2)CC1 [Compound 326, [(3aS,7aS)-3a-(3,4-dimethoxyphenyl)-1-methyl-3,4,5,7a-tetrahydro-2H-indol-6-yl]N-ethyl-N-methyl-carbamate]	0	0	0	0	0	0	0	0	0	0	0	0	100.0	>99	96.6	>99	>99	98.5	100.0	98.2	Prodrug (%) ([4]; 30 min): 99.9%; Prodrug (%) ([4]; 60 min): 98.4%; Prodrug (%) ([4]; 120 min): >99%; Prodrug (%) ([4]; 240 min): 93.9%
COc1ccc([C@@]23CCC(OP(=O)(OCc4ccccc4)OCc4ccccc4)=C[C@@H]2N(C)CC3)cc1OC [Compound 319, [(3aS,7aS)-3a-(3,4-dimethoxyphenyl)-1-methyl-3,4,5,7a-tetrahydro-2H-indol-6-yl] dibenzyl phosphate]	2	5	25	26	60	61	2	4	5	10	20	59	–	–	–	–	–	–	–	–	–
COc1ccc([C@@]23CCC(OP(=O)(O)OCOC(=O)C(C)(C)C)=C[C@@H]2N(C)CC3)cc1OC [Compound 409, [[(3aS,7aS)-3a-(3,4-dimethoxyphenyl)-1-methyl-3,4,5,7a-tetrahydro-2H-indol-6-yl]oxy-hydroxy-phosphoryl]oxymethyl 2,2-dimethylpropanoate]	–	–	–	–	–	–	–	–	–	–	–	–	–	–	–	–	–	–	–	–	Prodrug (%) ([5]; 0 min): 100.0%; Prodrug (%) ([5]; 10 min): 89.9%; Prodrug (%) ([5]; 30 min): 81.2%; Prodrug (%) ([5]; 60 min): 71.0%; Prodrug (%) ([5]; 120 min): 44.5%; Prodrug (%) ([5]; 240 min): 22.7%; Prodrug (%) ([6]; 0 min): 100.0%; Prodrug (%) ([6]; 10 min): >99%; Prodrug (%) ([6]; 30 min): 95.2%; Prodrug (%) ([6]; 60 min): 93.0%; Prodrug (%) ([6]; 120 min): 87.3%; Prodrug (%) ([6]; 240 min): 75.8%
COc1ccc([C@@]23CCC(OP(=O)(O)OCOC(=O)C(C)C)=C[C@@H]2N(C)CC3)cc1OC [Compound 408, [[(3aS,7aS)-3a-(3,4-dimethoxyphenyl)-1-methyl-3,4,5,7a-tetrahydro-2H-indol-6-yl]oxy-hydroxy-phosphoryl]oxymethyl 2-methylpropanoate]	–	–	–	–	–	–	–	–	–	–	–	–	–	–	–	–	–	–	–	–	Prodrug (%) ([5]; 0 min): 100.0%; Prodrug (%) ([5]; 10 min): 63.8%; Prodrug (%) ([5]; 30 min): 29.2%; Prodrug (%) ([5]; 60 min): 8.2%; Prodrug (%) ([5]; 120 min): 0.8%; Prodrug (%) ([5]; 240 min): 0.0%; Prodrug (%) ([6]; 0 min): 100.0%; Prodrug (%) ([6]; 10 min): 94.2%; Prodrug (%) ([6]; 30 min): 82.6%; Prodrug (%) ([6]; 60 min): 69.1%; Prodrug (%) ([6]; 120 min): 45.4%; Prodrug (%) ([6]; 240 min): 23.5%
COc1ccc([C@@]23CCC(OP(=O)(O)O)=C[C@@H]2N(C)CC3)cc1OC [Compound 359, [(3aS,7aS)-3a-(3,4-dimethoxyphenyl)-1-methyl-3,4,5,7a-tetrahydro-2H-indol-6-yl] dihydrogen phosphate]	–	–	–	–	–	–	–	–	–	–	–	–	100	>99	82.7	79.0	50.7	59.1	100	69.0	Prodrug (%) ([4]; 30 min): 65.1%; Prodrug (%) ([4]; 60 min): 50.4%; Prodrug (%) ([4]; 120 min): 32.8%; Prodrug (%) ([4]; 240 min): 25.6%
COc1ccc([C@@]23CCC(OC(=O)N4CCN(C)CC4)=C[C@@H]2N(C)CC3)cc1OC [Compound 327, [(3aS,7aS)-3a-(3,4-dimethoxyphenyl)-1-methyl-3,4,5,7a-tetrahydro-2H-indol-6-yl]4-methylpiperazine-1-carboxylate]	0	0	0	0	0	0	0	0	0	0	0	0	100	>99	>99	>99	>99	>99	100	>99	Prodrug (%) ([4]; 30 min): 98.9%; Prodrug (%) ([4]; 60 min): >99%; Prodrug (%) ([4]; 120 min): >99%; Prodrug (%) ([4]; 240 min): 94.4%
